Here are results for eleven molecules from PubChem BioAssay (NCI).

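In this assay, cells in 96-well plates receive the compound at five concentrations for 48 hours. Endpoints are linearly interpolated between the surrounding concentrations. GI50 = concentration required for 50% inhibition of growth. Definition used: TGI = concentration required for complete inhibition of growth.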 Where only a bound is given, the exact number is not on record here.

Test systems include HOP-62 NSCLC; UO-31 renal; IGROV1 ovarian; SNB-75 CNS; RPMI-8226 leukemia; UACC-257 melanoma; A498 renal.
Holding throughout (test): inhibition of tumour cell growth, NCI panel, 48 h

`O=C(c1nc2ccccc2[nH]1)C1C(c2cccc([N+](=O)[O-])c2)C2CC3CCCCC3N2[C@@]12C(=O)Nc1cc(Cl)ccc12` (stereo partly drawn): the GI50 in the experiment on HOP-62 NSCLC is 1.86 µM; with UO-31 renal it was 1.38 µM; in the experiment with IGROV1 ovarian, 1.54 µM; with SNB-75 CNS, 1.18 µM; with RPMI-8226 leukemia, 1.71 µM; in the experiment on UACC-257 melanoma it was 1.9 µM. Also, the TGI in the experiment with HOP-62 NSCLC stood at 4.62 µM; in the experiment with UO-31 renal, 3.16 µM; with IGROV1 ovarian it was 3.69 µM; in the experiment on SNB-75 CNS it was 3.63 µM; in the experiment with RPMI-8226 leukemia, 5.6 µM; in the experiment on UACC-257 melanoma it was 6.09 µM.

As for `CCOC(=O)Nc1ccc2nc(Sc3ccc(Cl)cc3)sc2c1`, the GI50 in the experiment on HOP-62 NSCLC was 9.43 µM; in the experiment on UO-31 renal, 9.57 µM; with IGROV1 ovarian, 5.09 µM; with SNB-75 CNS, 2.96 µM; with RPMI-8226 leukemia, 3.51 µM; with UACC-257 melanoma, 9.87 µM. Also, in the experiment on A498 renal, the GI50 is 1.19 µM. For the same molecule, the TGI with HOP-62 NSCLC was above 100 µM; with UO-31 renal it was 79.4 µM; in the experiment with IGROV1 ovarian, above 100 µM; with SNB-75 CNS, 33.9 µM; in the experiment on RPMI-8226 leukemia, 54.8 µM; in the experiment with UACC-257 melanoma, 45.2 µM. In the experiment with A498 renal, this molecule registered a TGI of 26.8 µM.

In the case of `CCOC(=O)CCC(NC(=O)c1ccc(Nc2nc3cc(N)cc(N)c3nc2-c2ccccc2)cc1)C(=O)OCC` (stereo not drawn), the GI50 in the experiment with HOP-62 NSCLC was above 44.1 µM; in the experiment on UO-31 renal, above 46.6 µM; in the experiment with IGROV1 ovarian, 22.6 µM; in the experiment on SNB-75 CNS, above 100 µM; with RPMI-8226 leukemia it was 6.43 µM; with UACC-257 melanoma, 6.04 µM. Also, the TGI with HOP-62 NSCLC is above 63 µM; in the experiment on UO-31 renal, above 87.1 µM; in the experiment on IGROV1 ovarian, above 94.7 µM; in the experiment with SNB-75 CNS, above 100 µM; with RPMI-8226 leukemia, above 59.3 µM; in the experiment on UACC-257 melanoma, 13.7 µM.

Consider `CCn1c(-c2nonc2N)nc2c(C#CC(C)(C)O)ncc(OCC3CCNCC3)c21`, for which the GI50 was 11.5 µM in the experiment with HOP-62 NSCLC; 6.42 µM in the experiment on UO-31 renal; 1.34 µM in the experiment on IGROV1 ovarian; 2.74 µM in the experiment with SNB-75 CNS; above 25 µM with RPMI-8226 leukemia; above 20.7 µM with UACC-257 melanoma. The GI50 in the experiment on A498 renal is 0.384 µM. Besides, the TGI was above 25 µM in the experiment with HOP-62 NSCLC; 18.5 µM with UO-31 renal; above 25 µM in the experiment on IGROV1 ovarian; above 23.3 µM in the experiment with SNB-75 CNS; above 25 µM in the experiment with RPMI-8226 leukemia; above 25 µM with UACC-257 melanoma. The TGI with A498 renal came to 12.7 µM.

`Cc1ccc(/C=C2\CN(C(=O)CCN3CCC(=NO)CC3)C/C(=C\c3ccc(C)cc3)C2=O)cc1`: the GI50 with UO-31 renal is 1.42 µM; in the experiment with RPMI-8226 leukemia, 0.286 µM; with A498 renal, 1.48 µM. In addition, the TGI in the experiment on UO-31 renal came out at 2.73 µM; in the experiment on RPMI-8226 leukemia it was 0.885 µM; in the experiment with A498 renal, 2.96 µM.

As to `COC(=O)[C@@H](C)C[C@H](Cc1ccccc1)NC(=O)c1csc([C@@H](C[C@H](C(C)C)N(C)C(=O)[C@@H](NC(=O)CN(C)C)C2CC2)OC(C)=O)n1`, the GI50 in the experiment on HOP-62 NSCLC was 0.0585 µM; in the experiment with UO-31 renal, 0.478 µM; with IGROV1 ovarian it was 0.0245 µM; in the experiment with SNB-75 CNS, 0.00696 µM; in the experiment on RPMI-8226 leukemia, 0.00576 µM; in the experiment on A498 renal, 0.304 µM. For the same molecule, the TGI with HOP-62 NSCLC was above 16.5 µM; in the experiment on UO-31 renal it was above 16.5 µM; in the experiment on IGROV1 ovarian, above 16.5 µM; with SNB-75 CNS, above 16.5 µM; in the experiment with RPMI-8226 leukemia, above 7.96 µM; with A498 renal, above 7.5 µM.

On to `CC[C@@]1(O)C(=O)N(CCN(C)C)Cc2c1cc1n(c2=O)Cc2cc3ccccc3nc2-1`, for which the GI50 with HOP-62 NSCLC is 5.21 µM; with UO-31 renal, 9.41 µM; in the experiment with IGROV1 ovarian, 26 µM; in the experiment with SNB-75 CNS, 17.4 µM; with RPMI-8226 leukemia it was above 43.9 µM; in the experiment on UACC-257 melanoma, above 100 µM. Further, in the experiment on A498 renal, the GI50 was 56.2 µM. For the same molecule, the TGI in the experiment with HOP-62 NSCLC, in the experiment on UO-31 renal, with IGROV1 ovarian, with SNB-75 CNS, with RPMI-8226 leukemia and in the experiment with UACC-257 melanoma was above 100 µM in each case. In addition, the TGI in the experiment with A498 renal was above 100 µM.

As to `NC(=S)c1cn(C2OC(CO)C(O)C2O)c2ncnc(N)c12` (stereo not drawn), the GI50 in the experiment with HOP-62 NSCLC is 0.065 µM; in the experiment with UO-31 renal, 0.275 µM; in the experiment on IGROV1 ovarian, 0.136 µM; in the experiment with SNB-75 CNS it was 0.223 µM; in the experiment on RPMI-8226 leukemia, 0.099 µM; with UACC-257 melanoma it was 0.166 µM. In addition, the GI50 with A498 renal was 0.535 µM. The TGI amounted to 1.95 µM in the experiment on HOP-62 NSCLC; 1.68 µM with UO-31 renal; 0.586 µM in the experiment on IGROV1 ovarian; 1.84 µM in the experiment on SNB-75 CNS; 0.448 µM in the experiment with RPMI-8226 leukemia; 0.571 µM with UACC-257 melanoma. In the experiment with A498 renal, this molecule had a TGI of 3.01 µM.

As to `CO[C@H]1/C=C/C=C/C=C/C[C@H](OC(=O)[C@@H](C)NC(=O)C2CCCCC2)[C@H](C)[C@@H](O)/C(C)=C\CCC2=CC(=O)C=C(NC(=O)C1)C2=O`, the GI50 in the experiment on HOP-62 NSCLC is 0.125 µM; in the experiment on UO-31 renal it was 0.352 µM; with IGROV1 ovarian, 0.0941 µM; in the experiment on SNB-75 CNS, 0.0832 µM; in the experiment on RPMI-8226 leukemia, 0.111 µM; in the experiment on A498 renal, 0.282 µM. Also, the TGI in the experiment on HOP-62 NSCLC is 0.68 µM; with UO-31 renal, 2.79 µM; in the experiment on IGROV1 ovarian, 1.28 µM; in the experiment on SNB-75 CNS, 1.7 µM; in the experiment on RPMI-8226 leukemia, 0.327 µM; in the experiment on A498 renal it was 2.33 µM.

`c1ccc(-c2nn(-c3ccccc3)[n+](-c3ccccc3-c3ccccc3)n2)cc1`: the GI50 in the experiment with HOP-62 NSCLC was 2.1 µM; in the experiment on UO-31 renal, 11.6 µM; with IGROV1 ovarian, 0.868 µM; in the experiment with SNB-75 CNS it was 1.23 µM; in the experiment with RPMI-8226 leukemia it was 0.251 µM; with UACC-257 melanoma it was 0.339 µM. For the same molecule, in the experiment with A498 renal, the GI50 was 1.65 µM. Further, the TGI with HOP-62 NSCLC was above 42.2 µM; in the experiment on UO-31 renal it was above 77.6 µM; in the experiment with IGROV1 ovarian, 16.3 µM; in the experiment on SNB-75 CNS, 19.9 µM; in the experiment with RPMI-8226 leukemia it was 5.84 µM; with UACC-257 melanoma, 2.72 µM. Also, the TGI with A498 renal is 9.04 µM.

For `Cc1cncc2cccc(S(=O)(=O)N3CCCNC[C@@H]3C)c12`, the GI50 in the experiment on HOP-62 NSCLC was 11.5 µM; with UO-31 renal, 2.16 µM; with IGROV1 ovarian, 48.8 µM; in the experiment on SNB-75 CNS it was 0.214 µM; in the experiment with RPMI-8226 leukemia, 42.8 µM; with UACC-257 melanoma it was above 100 µM. The GI50 in the experiment on A498 renal was 1.61 µM. Further, the TGI was above 100 µM in the experiment on HOP-62 NSCLC; 23.8 µM in the experiment with UO-31 renal; above 100 µM in the experiment with IGROV1 ovarian; 6.52 µM with SNB-75 CNS; above 100 µM in the experiment on RPMI-8226 leukemia; above 100 µM with UACC-257 melanoma. This molecule returned a TGI in the experiment on A498 renal of 17.7 µM.
